Results published in patent US20030113379A1, “Biodegradable composite matrix for enhancing angiogenesis and method for producing the same” (INDUSTRIAL TECHNOLOGY RESEARCH INSTITUTE, priority 2001, published 2003).
Entries after “also recorded” stand apart in the source; their conditions may differ.

Tested on: mouse
Assay: Angiogenesis in mice after subcutaneous injection of hydrogel composite matrix (HE-stained tissue sections)
Format: in vivo
Conditions: mice sacrificed 15 days after subcutaneous injection of the hydrogel; rank order against PBS control
Procedure: S-1-P was dissolved in methanol and the solution was poured into a round bottom flask. S-1-P was then dried and spread onto the inner wall of the flask by decompression distillation. PBS was added into the flask followed by rapid freezing using liquid nitrogen. The mixture was then sonicated under room temperature to melt the S-1-P from the inner wall and form micelles. The resulting S-1-P micelles were mixed with chitin hydrogel and bFGF to give a composite matrix. The composite matrix was introduced into the mouse via subcutaneous injection.
The mice were sacrificed 15 days after injecting the hydrogel. The implanted tissues were obtained, fixed, embedded, sectioned, stained, and observed under a 200 times microscope. The sizes and conditions of the blood vessels of the sections were observed. […] The arrows indicate the blood vessels. FIG. 2 is the average numbers of blood vessels of the tissue sections. It is shown that blood vessel number of the sections is bFGF/S-1-P>bFGF>PBS, which is in consistent with results shown in FIG. 1.

## bFGF: protein growth factor (fibroblast growth factor) used alone as the comparison sample
  average numbers of blood vessels of the tissue sections (FIG. 2): larger than the PBS sample; also recorded: bFGF>PBS
